Results on 26 molecules are retold here after ChEMBL document CHEMBL1153322, “Identification of novel and orally active spiroindoline NPY Y5 receptor antagonists” (Bioorg Med Chem Lett, 2009).

The nature of series [1]: Ratio of drug level in brain to plasma of rat at 3 mg/kg, iv after 10 mins. The series is classed as ADME, organism-based. Set-up: dose 3 mg/kg, route intravenous. As to conditions: brain and plasma, read-out: BPR.
The nature of series [2]: Ratio of drug level in brain to plasma of rat at 3 mg/kg, iv after 60 mins. It is filed as ADME, organism-based. Further details: dose 3 mg/kg, route intravenous. The settings on record: brain and plasma, read-out: BPR.
Series [3] is described as follows: Oral bioavailability in rat at 10 mg/kg. It is filed as ADME, organism-based. As to conditions: in vivo.
In series [4] the target is T1, Neuropeptide Y receptor type 5 (Homo sapiens, UniProt Q15761).
T1 sequence (Q15761 whole entry): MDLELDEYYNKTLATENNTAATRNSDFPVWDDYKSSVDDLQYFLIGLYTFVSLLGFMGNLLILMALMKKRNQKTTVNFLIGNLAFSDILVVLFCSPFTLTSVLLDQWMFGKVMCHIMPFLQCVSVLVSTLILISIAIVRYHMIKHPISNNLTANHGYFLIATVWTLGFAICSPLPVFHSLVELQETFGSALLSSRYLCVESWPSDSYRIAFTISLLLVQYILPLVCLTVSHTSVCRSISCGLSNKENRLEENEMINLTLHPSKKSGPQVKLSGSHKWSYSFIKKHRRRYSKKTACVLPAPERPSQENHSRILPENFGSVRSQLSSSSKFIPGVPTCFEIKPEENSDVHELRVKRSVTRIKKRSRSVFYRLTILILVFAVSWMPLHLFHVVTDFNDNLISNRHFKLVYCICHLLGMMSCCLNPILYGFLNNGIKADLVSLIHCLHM
Kind of series: Displacement of [125I]PYY from human recombinant Y5 receptor expressed in mouse LMtk cells. It is filed as cell-based.

Series [5] in a line: Solubility at pH 7. The series is classed as physicochemical. As to conditions: buffer.
Series [6] in a line: Solubility at pH 1. The series is classed as physicochemical. The settings on record: buffer.
Series [7] in a line: Solubility at pH 5. The series is classed as physicochemical. As to conditions: buffer.
A short description of series [8]: Solubility at pH 3. The series is classed as physicochemical. The settings on record: buffer.
Series [9] in a line: Lipophilicity, log D at pH 7.4. As to conditions: buffer. The series is classed as physicochemical.
Series [10] has as its system Rattus norvegicus. Kind of series: Inhibition of bovine-pancreatic polypeptide-induced food intake in po dosed Sprague-Dawley rat assessed as minimum effective dose measured for 2 hrs. The settings on record: read-out: MED. The series is classed as functional.
For series [11], the system named is Rattus norvegicus. Kind of series: Toxicity in Sprague-Dawley rat assessed as sedation at 30 mg/kg, po. The series is classed as organism-based. Further details: dose 30 mg/kg, route oral. As to conditions: in vivo.
Series [12] has as its system Rattus norvegicus. Kind of series: Inhibition of bovine-pancreatic polypeptide-induced food intake in Sprague-Dawley rat at 30 mg/kg, po measured for 2 hrs. It is filed as functional, organism-based. Set-up: dose 30 mg/kg.

SMILES strings stand for the structures. Active and inactive are the calls of the source. The calls are words filed in the database; no cut-off is given here. Where only a bound is given, the exact number is not on record here.

As for `CS(=O)(=O)N1CC2(CCN(C(=O)Nc3ncc(-c4ccccc4)cn3)CC2)c2ccccc21`, the Kp at 10 min in series [1] was 0.14. Besides, the Kp at 1 h in series [2] was 0.07. In series [3], this molecule showed a bioavailability of 24%. The IC50 in series [4] stood at 0.57 nM.
In the case of `CC(=O)c1ccc(NC(=O)N2CCC3(CC2)CN(S(N)(=O)=O)c2ccccc23)cc1`, in [4], the IC50 came to 2 nM.
On the same count and under the same terms, under `O=C(Nc1cc(-c2ccc(Cl)cc2)n[nH]1)C1Cc2ccccc2C1` stands 59 nM; under `CS(=O)(=O)Nc1ccccc1N1CCN(C(=O)Nc2cc(-c3ccc(Cl)cc3)n[nH]2)CC1`, 1.4 nM.
As to `CS(=O)(=O)N1CC2(CCN(C(=O)Nc3ccc(-c4cccnc4)cc3)CC2)c2ccccc21`, the Kp at 10 min in series [1] amounted to 0.13. Besides, the Kp at 1 h in [2] turned out to be 0.11. The bioavailability in series [3] is 47%. For the same molecule, the half-maximal inhibitory concentration (IC50) in series [4] is 2.1 nM.
With `CCCCc1ccc(NC(=O)N2CCC3(CC2)CN(S(C)(=O)=O)c2ccccc23)cc1`, the 50% inhibitory concentration (IC50) in series [4] was determined as 1.2 nM.
On to `CS(=O)(=O)N1CC2(CCN(C(=O)Nc3ccc(-c4ccccc4)cc3)CC2)c2ccccc21`, for which the solubility in series [5], in [6], in series [7] and in series [8] was less than 0.01 µg/mL each time. Moreover, the Kp at 10 min in series [1] was found to be 1.3. For the same molecule, the Kp at 1 h in series [2] came out at 1.93. This molecule also registered a bioavailability in series [3] of 0%. The IC50 in [4] came to 0.85 nM. Besides, in series [9], the log distribution coefficient (logD) was more than 4.
As to `CS(=O)(=O)N1CC2(CCN(C(=O)Nc3nccc(-c4ccccc4)n3)CC2)c2ccccc21`, the IC50 in series [4] came out at 9.8 nM.
In the case of `CS(=O)(=O)N1C[C@]2(CC[C@H](C(=O)Nc3ccc(-c4ccccc4)cc3)CC2)c2ccccc21`, in series [4], the half-maximal inhibitory concentration (IC50) was determined as 1.5 nM.
`CS(=O)(=O)N1CC2(CCN(C(=O)Nc3ccc(-c4ccccc4)cn3)CC2)c2ccccc21` gave a bioavailability in series [3] of 0%. In addition, the IC50 in series [4] was 0.96 nM.
`NS(=O)(=O)N1CC2(CCN(C(=O)Nc3ccccc3Cl)CC2)c2ccccc21`: the IC50 in series [4] was 5 nM.
Turning to `CS(=O)(=O)N1CC2(CCN(C(=O)Nc3cccc(-c4ccccc4)c3)CC2)c2ccccc21`, the IC50 in series [4] was 1.3 nM.
Molecule `CS(=O)(=O)N1CC2(CCN(C(=O)Nc3cnc(-c4ccccc4)cn3)CC2)c2ccccc21` yielded a bioavailability in [3] of 0%. In series [4], the IC50 is 0.97 nM.
For `CS(=O)(=O)N1CC2(CCN(C(=O)Nc3ccc(-c4ccccc4)nc3)CC2)c2ccccc21`, in that order: 0% and 0.82 nM.
Consider `CS(=O)(=O)N1CC2(CCN(C(=O)Nc3cccc(-c4ccncc4)c3)CC2)c2ccccc21`, for which the IC50 in series [4] was 23 nM.
For the molecule `NS(=O)(=O)N1CC2(CCN(C(=O)Nc3ccc(Cl)c(Cl)c3)CC2)c2ccccc21`, the half-maximal inhibitory concentration (IC50) in series [4] stood at 4 nM.
On the same count and under the same terms, next, `CS(=O)(=O)N1C[C@]2(CC[C@@H](C(=O)Nc3ccc(-c4ccccc4)cc3)CC2)c2ccccc21`: 200 nM.
Turning to `CS(=O)(=O)N1CC2(CCN(C(=O)Cc3ccc(-c4ccccc4)cc3)CC2)c2ccccc21`, in [4], the IC50 was 180 nM.
Take `CS(=O)(=O)N1CC2(CCN(C(=O)Nc3ccc(-c4ccccc4)nn3)CC2)c2ccccc21`: the Kp at 10 min in [1] stood at 0.42. Also, the Kp at 1 h in series [2] was 0.32. For the same molecule, the bioavailability in series [3] worked out at 20%. Besides, in series [4], the half-maximal inhibitory concentration (IC50) turned out to be 3 nM.
`CS(=O)(=O)N1CC2(CCN(C(=O)Nc3ccc(-c4ccccn4)cc3)CC2)c2ccccc21`: the Kp at 10 min in series [1] stood at 0.23. Also, in series [2], the Kp at 1 h worked out at 0.24. This molecule showed a bioavailability in series [3] of 12%. The concentration for half-maximal inhibition (IC50) in [4] came to 3 nM.
In the case of `CS(=O)(=O)N1CC2(CCN(C(=O)Nc3ccnc(-c4ccccc4)n3)CC2)c2ccccc21`, the IC50 in series [4] was found to be 7.5 nM.
On the same count and under the same terms, next, `CS(=O)(=O)N1CC2(CCN(C(=O)Nc3ccc(Cl)c(Cl)c3)CC2)c2ccccc21`: 0.2 nM.
Consider `CS(=O)(=O)N1CC2(CCN(C(=O)Nc3ccc(-c4ccncc4)cc3)CC2)c2ccccc21`, for which the Kp at 10 min in series [1] stood at 0.12. The minimal effective dose in [10] came to 10 mg/kg. The Kp at 1 h in [2] came out at 0.12. In [3], this molecule displayed a bioavailability of 53%. In series [4], the half-maximal inhibitory concentration (IC50) came to 4.1 nM. The Activity result in series [11] was “Non-toxic”. Moreover, the result in series [12] was Active.
Turning to `NS(=O)(=O)N1CC2(CCN(C(=O)Nc3ccc(Oc4ccccc4)cc3)CC2)c2ccccc21`, in series [4], the half-inhibitory concentration (IC50) was found to be 3 nM.
Consider `CS(=O)(=O)N1CC2(CCN(C(=O)Nc3ccccc3-c3ccccc3)CC2)c2ccccc21`, for which the half-inhibitory concentration (IC50) in [4] was found to be 430 nM.
For `CS(=O)(=O)N1CC2(CCN(C(=O)Nc3cnc(-c4ccccc4)nc3)CC2)c2ccccc21`, the bioavailability in series [3] stood at 0%. For the same molecule, in series [4], the 50% inhibitory concentration (IC50) came to 0.86 nM.

As a reminder, the bioavailability is dose-corrected exposure relative to a reference, in per cent. A low value points to poor availability. By IC50 is commonly meant the point on the concentration scale where inhibition reaches its midpoint. One may read the solubility as the concentration that dissolves in the medium under given conditions. High values mean much dissolved substance, low ones little dissolved substance. Usually logD stands for the decadic logarithm of the distribution of all forms, ionised or not, between an organic phase and buffer at a given pH. A higher logD goes with a more lipophilic compound.
